The target of data set [1] is CK1g3 (Homo sapiens, UniProt Q9Y6M4). Briefly: kinase inhibition assay panel. The class given is biochemical.
For data set [2], the target named is CLK2 (Homo sapiens, UniProt P49760). Briefly: kinase inhibition assay panel. It counts as biochemical.
Data set [3] addresses T1, CK1δ (Homo sapiens, UniProt P48730).
T1 construct: Recombinant human full-length construct; GST; host or cells: insect cells
T1 sequence (P48730 1-409 isoform P48730-2): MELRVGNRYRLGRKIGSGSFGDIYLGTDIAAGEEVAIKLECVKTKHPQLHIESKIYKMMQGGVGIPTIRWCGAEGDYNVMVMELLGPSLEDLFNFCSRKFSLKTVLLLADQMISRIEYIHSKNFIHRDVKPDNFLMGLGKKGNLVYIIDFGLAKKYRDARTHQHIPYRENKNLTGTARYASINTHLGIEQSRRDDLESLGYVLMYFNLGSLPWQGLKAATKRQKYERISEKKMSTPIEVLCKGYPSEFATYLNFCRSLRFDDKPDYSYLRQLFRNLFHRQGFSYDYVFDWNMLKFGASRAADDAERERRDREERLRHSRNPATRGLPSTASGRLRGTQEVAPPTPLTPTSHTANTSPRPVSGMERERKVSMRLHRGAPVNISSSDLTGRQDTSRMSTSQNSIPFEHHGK
Briefly: CK1δ inhibition assay (33P-ATP, CK1tide substrate). The class given is biochemical. Conditions: range of kinase inhibition assays. The method, then:
The compounds of the invention may be tested for inhibition of casein kinase 1 delta (CK1δ) in accordance with the assay protocols described in US 2010/0152157, EP 1,636,375 or Hanger et al (2007) J. Biol. Chem. 282, 23645-23654. In particular, the assay was conducted in accordance with the following protocol:
Base Reaction buffer; 20 mM Hepes (pH 7.5), 10 mM MgCl2, 1 mM EGTA, 0.02% Brij35, 0.02 mg/ml BSA, 0.1 mM Na3VO4, 2 mM DTT, 1% DMSO
It should be noted that required cofactors are added individually to each kinase reaction.
• 1. Prepare indicated substrate in freshly prepared Base Reaction Buffer as described above • 2. Deliver any required cofactors to the substrate solution • 3. Deliver indicated kinase into the substrate solution and gently mix • 4. Deliver compounds in DMSO into the kinase reaction mixture • 5. Deliver ^33P-ATP (specific activity 0.01 μCi/μl final) into the reaction mixture to initiate the reaction • 6. Incubate kinase reaction for 120 min. at room temperature • 7. Reactions are spotted onto P81 ion exchange paper (Whatman #3698-915) • 8. Wash filters extensively in 0.75% Phosphoric acid Kinase Information: • CK1δ—Genbank Accession # NP_620693 • Recombinant human full-length construct. GST-tagged, expressed in insect cells. • Final concentration in assay=4 nM • Substrate: CK1tide • Substrate sequence: [KRRRAL[pS]VASLPGL] • Final substrate concentration in assay=20 μM • It should be noted that no additional cofactors are added to the reaction mixture.

The target of data set [4] is ALK5/TGFBR1 (Homo sapiens, UniProt P36897). The experiment in a line: kinase inhibition assay panel. It counts as biochemical.
For data set [5], the system named is SH-SY5Y-TMHT cells. The experiment in a line: Cell viability, MTT assay. It counts as cell-based, human. The settings on record: 6 h of treatment. The method, then: SH-SY5Y-TMHT cells are kept in culture medium (DMEM medium, 10% FCS, 1% NEAA, 1% L-Glutamine, 100 μg/ml Gentamycin, 300 μg/ml Geneticin G-418) for 2 days until 80-90% confluency. Cells are then differentiated in culture medium supplemented with 10 μM retinoic acid (RA) for 7 days changing medium every 2 to 3 days. Differentiated cells are seeded onto 6-well plates and 96-well plates at a cell density of 1.25×10^6 and 8×10^5 cells per well, respectively. On day 8 post-differentiation, the test compounds, reference compounds and vehicle control were added to the culture medium. After 6 h of compound exposure one plate of cells is subjected to a MTT assay to evaluate the effect of test and reference items on cell viability. Remaining wells are washed once with cold PBS and harvested in 300 μl RIPA-Buffer [50 mM Tris pH 7.4, 1% Nonident P40, 0.25% Na-deoxy-cholate, 150 mM NaCl, 1 mM EDTA, 1 μM NaF, 1 μM Na-ortho-vanadate, 80 mM Glycerophosphate, supplemented with freshly added protease (Calbiochem) and phosphatase (Sigma) inhibitor cocktail]. The cell suspension is transferred into a 1.5 ml tube and additionally lysed by sonication on ice. An aliquot of 20 μl is taken for the determination of the protein concentration (BCA assay). Subsequently, the lysates are snap frozen and stored at −80° C. until shipment.
To determine compound activity, it is necessary to control for potential cell toxicity of all molecules. Viability of cultures is determined by the MTT assay. This assay allows the measurement of the mitochondrial dehydrogenase activity which reduces yellow MTT to dark blue formazan crystals. Since this reaction is catalyzed in living cells only this assay is used for the determination of cell viability. MTT solution is added to each well in a final concentration of 0.5 mg/ml. After 2 hours, the MTT containing medium is aspired. Cells are lysed in 3% SDS and the formazan crystals are dissolved in isopropanol/HCl. Optical density is measured with a plate-reader at wavelength 570 nm. Cell survival rate is expressed as optical density (OD). Values are calculated as percent of control values.
Cell viability was determined in differentiated SH-SY5Y-TMHT cells by the MTT assay. Test and reference compounds were applied in a concentration range from 0.05 μM to 10 μM and from 0.1 μM to 1 μM, respectively. Upon 6 h of treatment, cell viability was evaluated. […] Statistical significance is indicated by *<0.05, **<0.01, ***<0.001 as determined by One-Way ANOVA. Data are shown from two independent experiments as group mean+/−SEM (n=8). […] Statistical significance is indicated by *<0.05, **<0.01, ***<0.001 as determined by One-Way ANOVA. […] Statistical significance is indicated by *<0.05, **<0.01, ***<0.001 as determined by One-Way ANOVA. […]

Data set [6] addresses EPHA2 (Homo sapiens, UniProt P29317). The experiment in a line: kinase inhibition assay panel. The class given is biochemical. Put shortly: (§1)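 Radiometric filter-binding assay: kinase and substrate in 20 mM Hepes pH 7.5, 10 mM MgCl2, 1 mM EGTA, 0.02% Brij35, 0.02 mg/ml BSA, 0.1 mM Na3VO4, 2 mM DTT, 1% DMSO, with cofactors added per kinase. Started with 33P-ATP, run 120 min at room temperature, spotted on P81 paper, washed in 0.75% phosphoric acid.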

The target of data set [7] is ALK4/ACVR1B (Homo sapiens, UniProt P36896). The experiment in a line: kinase inhibition assay panel. It counts as biochemical. Put shortly: as §1
Data set [8] concerns the target PKA (Homo sapiens, UniProt P17612). The experiment in a line: kinase inhibition assay panel. It counts as biochemical. Put shortly:
as §1

Data set [9] deals with YES/YES1 (Homo sapiens, UniProt P07947). The experiment in a line: kinase inhibition assay panel. The class given is biochemical. The gist of the method: as §1
The target of data set [10] is RIPK2 (Homo sapiens, UniProt O43353). Briefly: kinase inhibition assay panel. The class given is biochemical. The gist of the method:
as §1

The record followed here is patent US9789111B2, “Casein kinase 1δ (CK 1δ) inhibitors” (Electrophoretics Limited, priority 2010, dated 2017).

CK1g3, sequence (Q9Y6M4 whole entry): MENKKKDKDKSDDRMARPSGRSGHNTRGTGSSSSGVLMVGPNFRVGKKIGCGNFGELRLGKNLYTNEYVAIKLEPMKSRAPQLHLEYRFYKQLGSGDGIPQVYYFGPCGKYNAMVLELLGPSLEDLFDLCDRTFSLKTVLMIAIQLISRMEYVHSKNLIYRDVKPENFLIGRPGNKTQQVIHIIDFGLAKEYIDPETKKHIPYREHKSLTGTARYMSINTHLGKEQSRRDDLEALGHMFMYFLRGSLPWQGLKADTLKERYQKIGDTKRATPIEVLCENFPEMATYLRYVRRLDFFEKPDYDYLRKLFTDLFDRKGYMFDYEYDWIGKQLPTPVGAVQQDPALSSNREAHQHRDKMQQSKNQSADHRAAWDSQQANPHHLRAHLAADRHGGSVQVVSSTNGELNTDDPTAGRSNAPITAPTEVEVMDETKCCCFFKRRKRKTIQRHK
CLK2, sequence (P49760 whole entry, species assumed): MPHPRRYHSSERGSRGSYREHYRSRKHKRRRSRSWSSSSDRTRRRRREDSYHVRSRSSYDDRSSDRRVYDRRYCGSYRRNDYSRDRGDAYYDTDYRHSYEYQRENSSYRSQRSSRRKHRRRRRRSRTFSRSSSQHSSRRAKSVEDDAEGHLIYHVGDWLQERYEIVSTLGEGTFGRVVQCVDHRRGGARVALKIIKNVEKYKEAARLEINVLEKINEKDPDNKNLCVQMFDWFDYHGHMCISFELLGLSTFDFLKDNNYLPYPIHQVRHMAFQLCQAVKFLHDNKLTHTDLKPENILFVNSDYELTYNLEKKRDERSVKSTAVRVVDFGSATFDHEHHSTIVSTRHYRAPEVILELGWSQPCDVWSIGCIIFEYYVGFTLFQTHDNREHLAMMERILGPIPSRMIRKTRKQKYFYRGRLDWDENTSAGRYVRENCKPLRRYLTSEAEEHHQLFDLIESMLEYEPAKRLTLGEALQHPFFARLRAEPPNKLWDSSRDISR
ALK5/TGFBR1, sequence (P36897 34-503): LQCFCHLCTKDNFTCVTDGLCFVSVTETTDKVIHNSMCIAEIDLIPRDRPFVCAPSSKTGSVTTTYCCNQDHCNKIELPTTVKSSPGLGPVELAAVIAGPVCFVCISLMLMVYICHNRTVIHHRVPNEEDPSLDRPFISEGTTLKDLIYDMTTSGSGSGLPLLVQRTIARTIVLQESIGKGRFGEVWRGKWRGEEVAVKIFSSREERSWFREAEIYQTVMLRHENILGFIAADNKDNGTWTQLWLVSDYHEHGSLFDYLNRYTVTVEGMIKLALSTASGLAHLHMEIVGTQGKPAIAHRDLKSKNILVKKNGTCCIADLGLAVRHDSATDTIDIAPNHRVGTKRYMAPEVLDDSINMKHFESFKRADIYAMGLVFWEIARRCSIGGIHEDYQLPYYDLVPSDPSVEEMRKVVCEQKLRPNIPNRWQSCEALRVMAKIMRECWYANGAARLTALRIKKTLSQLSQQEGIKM
EPHA2, sequence (P29317 24-976, species assumed): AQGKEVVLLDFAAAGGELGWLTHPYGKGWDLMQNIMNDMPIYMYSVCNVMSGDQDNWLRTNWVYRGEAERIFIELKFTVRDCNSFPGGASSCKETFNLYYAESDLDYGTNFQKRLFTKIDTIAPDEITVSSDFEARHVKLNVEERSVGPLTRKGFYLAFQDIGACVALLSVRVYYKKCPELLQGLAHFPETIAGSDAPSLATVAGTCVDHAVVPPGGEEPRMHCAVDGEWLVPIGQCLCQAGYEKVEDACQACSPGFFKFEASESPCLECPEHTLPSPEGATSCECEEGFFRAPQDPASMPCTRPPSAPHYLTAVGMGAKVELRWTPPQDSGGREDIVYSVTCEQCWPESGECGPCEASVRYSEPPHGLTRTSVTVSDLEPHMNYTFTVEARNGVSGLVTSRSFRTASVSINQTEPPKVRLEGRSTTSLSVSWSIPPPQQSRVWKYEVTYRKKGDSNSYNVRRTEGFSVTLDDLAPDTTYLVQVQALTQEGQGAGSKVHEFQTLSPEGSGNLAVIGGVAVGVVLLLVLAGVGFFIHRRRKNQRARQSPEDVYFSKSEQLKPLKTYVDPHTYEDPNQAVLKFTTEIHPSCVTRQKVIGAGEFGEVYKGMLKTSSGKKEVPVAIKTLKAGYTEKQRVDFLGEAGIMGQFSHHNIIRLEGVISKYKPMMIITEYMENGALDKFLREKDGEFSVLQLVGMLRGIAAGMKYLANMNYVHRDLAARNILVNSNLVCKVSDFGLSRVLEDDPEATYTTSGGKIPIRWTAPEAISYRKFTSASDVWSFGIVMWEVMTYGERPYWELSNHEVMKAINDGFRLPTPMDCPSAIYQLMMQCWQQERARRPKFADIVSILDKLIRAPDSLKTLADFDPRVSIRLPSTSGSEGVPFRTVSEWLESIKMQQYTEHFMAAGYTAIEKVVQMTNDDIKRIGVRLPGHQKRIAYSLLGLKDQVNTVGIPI
YES/YES1, sequence (P07947 whole entry): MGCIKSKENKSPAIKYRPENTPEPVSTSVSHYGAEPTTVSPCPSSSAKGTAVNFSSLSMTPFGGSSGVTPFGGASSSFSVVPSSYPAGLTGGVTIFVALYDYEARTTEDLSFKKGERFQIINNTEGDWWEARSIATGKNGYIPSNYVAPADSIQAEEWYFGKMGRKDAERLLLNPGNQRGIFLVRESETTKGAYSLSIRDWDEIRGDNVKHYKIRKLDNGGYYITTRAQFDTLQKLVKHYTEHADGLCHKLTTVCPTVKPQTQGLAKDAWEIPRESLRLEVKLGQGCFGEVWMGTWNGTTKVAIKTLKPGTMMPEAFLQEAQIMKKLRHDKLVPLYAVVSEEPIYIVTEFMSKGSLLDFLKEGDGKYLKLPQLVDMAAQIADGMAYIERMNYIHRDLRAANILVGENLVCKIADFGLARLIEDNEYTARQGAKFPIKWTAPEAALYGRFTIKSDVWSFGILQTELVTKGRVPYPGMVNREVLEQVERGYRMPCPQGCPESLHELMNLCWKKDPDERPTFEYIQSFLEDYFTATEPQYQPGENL
ALK4/ACVR1B, sequence (P36896 24-505): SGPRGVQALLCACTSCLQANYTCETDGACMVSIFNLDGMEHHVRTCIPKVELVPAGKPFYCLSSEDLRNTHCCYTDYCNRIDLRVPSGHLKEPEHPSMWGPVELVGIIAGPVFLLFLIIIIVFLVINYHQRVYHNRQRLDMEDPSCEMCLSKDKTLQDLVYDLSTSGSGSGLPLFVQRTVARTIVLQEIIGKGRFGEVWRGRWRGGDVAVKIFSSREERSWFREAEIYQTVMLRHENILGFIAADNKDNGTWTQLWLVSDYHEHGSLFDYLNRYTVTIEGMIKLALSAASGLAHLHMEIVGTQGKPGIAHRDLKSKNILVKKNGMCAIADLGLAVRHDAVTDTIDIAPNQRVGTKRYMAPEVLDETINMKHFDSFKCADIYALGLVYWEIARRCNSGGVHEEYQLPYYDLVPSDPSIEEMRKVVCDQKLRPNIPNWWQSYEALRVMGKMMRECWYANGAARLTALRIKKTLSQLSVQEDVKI
RIPK2, sequence (O43353 whole entry, species assumed): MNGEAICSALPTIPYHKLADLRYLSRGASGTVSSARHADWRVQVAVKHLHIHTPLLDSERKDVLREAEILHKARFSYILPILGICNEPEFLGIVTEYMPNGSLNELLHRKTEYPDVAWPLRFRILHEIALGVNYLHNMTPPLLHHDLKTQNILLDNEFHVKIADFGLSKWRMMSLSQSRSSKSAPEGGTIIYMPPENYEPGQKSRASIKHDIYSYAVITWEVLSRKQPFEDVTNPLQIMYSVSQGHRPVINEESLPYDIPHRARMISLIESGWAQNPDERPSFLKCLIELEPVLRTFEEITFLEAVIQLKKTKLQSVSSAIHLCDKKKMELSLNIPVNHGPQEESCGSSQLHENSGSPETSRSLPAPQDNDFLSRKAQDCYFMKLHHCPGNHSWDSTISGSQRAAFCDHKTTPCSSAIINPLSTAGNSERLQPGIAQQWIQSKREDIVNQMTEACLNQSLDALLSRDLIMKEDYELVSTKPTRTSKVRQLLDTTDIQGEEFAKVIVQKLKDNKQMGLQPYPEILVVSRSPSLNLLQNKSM

Take `Nc1ncc(-c2nc3ccccc3o2)c(-c2ccncc2)n1` [Compound 324, 5-(1,3-benzoxazol-2-yl)-4-(pyridin-4-yl)pyrimidin-2-amine]: in data set [1], the “inhibition of CK1g3” value is recorded as “lower than 40%”. The “inhibition of CLK2” value in data set [2] was “lower than 40%”. Moreover, the “selectivity for CK1δ when compared with other kinases” value in data set [3] is “significant and selective inhibition for CK1δ”. In addition, the “inhibition of ALK5/TGFBR1” value in [4] was “lower than 40%”. For the same molecule, in data set [5] (0.05 μM to 10 μM, vs vehicle control), the “effect on the cell viability of SH-SY5Y-TMHT cells” value was “protective effect on the cell viability of SH-SY5Y-TMHT cells in a dose dependent manner”. For the same molecule, the “protective effect on cell viability, statistical significance” value in data set [5] (10 μM, One-Way ANOVA) is “statistically significant”. Moreover, in [6], the “inhibition of EPHA2” value is “lower than 40%”. Further, the “inhibition of ALK4/ACVR1B” value in data set [7] is given as “lower than 40%”. Moreover, the “inhibition of PKA” value in [8] is “lower than 40%”. Also, the “inhibition of YES/YES1” value in data set [9] was “lower than 40%”. In addition, in data set [10], the “inhibition of RIPK2” value was “lower than 40%”.
Turning to `NC(=O)c1c(N)c(C(=O)c2ccc(F)cc2)n2ccccc12` [Compound 987, 2-amino-3-[(4-fluorophenyl)carbonyl]indolizine-1-carboxamide], the “inhibition of CK1g3” value in [1] is “lower than 40%”. In [2], the “inhibition of CLK2” value is “lower than 40%”. The “selectivity for CK1δ when compared with other kinases” value in data set [3] was “significant and selective inhibition for CK1δ”. Moreover, the “effect on the cell viability of SH-SY5Y-TMHT cells” value in data set [5] (1 and 0.5 μM) is on record as “no cytotoxic effect”.
